For data set [1], the system named is interferon (α) (IFN-α) induction in human peripheral blood mononuclear cells (PBMC). Kind of data set: Cytokine induction in human cells (PBMC): IFN-α secreted into culture media, ELISA. It counts as cell-based. The settings on record: read-out: Minimum Effective Concentration (μM) IFN. The text has this: (§1) Cytokine Induction in Human Cells
(§2) An in vitro human blood cell system is used to assess cytokine induction. Activity is based on the measurement of interferon (α) and tumor necrosis factor (α) (IFN-α and TNF-α, respectively) secreted into culture media as described by Testerman et. al. in “Cytokine Induction by the Immunomodulators Imiquimod and S-27609”, Journal of Leukocyte Biology, 58, 365-372 (September, 1995).
(§3) Blood Cell Preparation for Culture
(§4) Whole blood from healthy human donors is collected by venipuncture into vacutainer tubes or syringes containing EDTA. Peripheral blood mononuclear cells (PBMC) are separated from whole blood by density gradient centrifugation using HISTOPAQUE-1077 (Sigma, St. Louis, Mo.) or Ficoll-Paque Plus (Amersham Biosciences Piscataway, N.J.). Blood is diluted 1:1 with Dulbecco's Phosphate Buffered Saline (DPBS) or Hank's Balanced Salts Solution (HBSS). Alternately, whole blood is placed in Accuspin (Sigma) or LeucoSep (Greiner Bio-One, Inc., Longwood, Fla.) centrifuge frit tubes containing density gradient medium. The PBMC layer is collected and washed twice with DPBS or HBSS and re-suspended at 4×10^6 cells/mL in RPMI complete. The PBMC suspension is added to 96 well flat bottom sterile tissue culture plates containing an equal volume of RPMI complete media containing test compound.
(§5) The compounds are solubilized in dimethyl sulfoxide (DMSO). The DMSO concentration should not exceed a final concentration of 1% for addition to the culture wells. The compounds are generally tested at concentrations ranging from 30-0.014 μM. Controls include cell samples with media only, cell samples with DMSO only (no compound), and cell samples with reference compound.
(§6) The solution of test compound is added at 60 μM to the first well containing RPMI complete and serial 3 fold dilutions are made in the wells. The PBMC suspension is then added to the wells in an equal volume, bringing the test compound concentrations to the desired range (usually 30-0.014 μM). The final concentration of PBMC suspension is 2×10^6 cells/mL. The plates are covered with sterile plastic lids, mixed gently and then incubated for 18 to 24 hours at 37° C. in a 5% carbon dioxide atmosphere.
(§7) Following incubation the plates are centrifuged for 10 minutes at 1000 rpm (approximately 200×g) at 4° C. The cell-free culture supernatant is removed and transferred to sterile polypropylene tubes. Samples are maintained at −30 to −70° C. until analysis. The samples are analyzed for IFN-α by ELISA and for TNF-α by IGEN/BioVeris Assay.
(§8) Interferon (α) and Tumor Necrosis Factor (α) Analysis
IFN-α concentration is determined with a human multi-subtype calorimetric sandwich ELISA (Catalog Number 41105) from PBL Biomedical Laboratories, Piscataway, N.J. Results are expressed in pg/mL.
(§9) In total, the data output of the assay consists of concentration values of TNF-α and IFN-α (y-axis) as a function of compound concentration (x-axis).
Analysis of the data has two steps. First, the greater of the mean DMSO (DMSO control wells) or the experimental background (usually 20 pg/mL for IFN-α and 40 pg/mL for TNF-α) is subtracted from each reading. If any negative values result from background subtraction, the reading is reported as “*”, and is noted as not reliably detectable. In subsequent calculations and statistics, “*”, is treated as a zero. Second, all background subtracted values are multiplied by a single adjustment ratio to decrease experiment to experiment variability. The adjustment ratio is the area of the reference compound in the new experiment divided by the expected area of the reference compound based on the past 61 experiments (unadjusted readings). […] The reference compound used is 2-[4-amino-2-ethoxymethyl-6,7,8,9-tetrahydro-α,α-dimethyl-1H-imidazo[4,5-c]quinolin-1-yl]ethanol hydrate (U.S. Pat. No. 5,352,784; Example 91) and the expected area is the sum of the median dose values from the past 61 experiments. […]

Data set [2] relates to tumor necrosis factor (α) (TNF-α) induction in human peripheral blood mononuclear cells (PBMC). In words: Cytokine induction in human cells (PBMC): TNF-α secreted into culture media, ORIGEN M-Series immunoassay. Format: cell-based. The following applies: for minimal effective concentration: Homo sapiens, PBMC, read-out: Minimum Effective Concentration (μM) TNF.
Excerpt: as §1, §2, §3, §4, §5, §6, §7, §8
The TNF-α concentration is determined by ORIGEN M-Series Immunoassay and read on an IGEN M-8 analyzer from BioVeris Corporation, formerly known as IGEN International, Gaithersburg, Md. The immunoassay uses a human TNF-α capture and detection antibody pair (Catalog Numbers AHC3419 and AHC3712) from Biosource International, Camarillo, Calif. Results are expressed in pg/mL.
as §9
Analysis of the data has two steps. First, the greater of the mean DMSO (DMSO control wells) or the experimental background (usually 20 pg/mL for IFN-α and 40 pg/mL for TNF-α) is subtracted from each reading. If any negative values result from background subtraction, the reading is reported as “*”, and is noted as not reliably detectable. In subsequent calculations and statistics, “*”, is treated as a zero. Second, all background subtracted values are multiplied by a single adjustment ratio to decrease experiment to experiment variability. The adjustment ratio is the area of the reference compound in the new experiment divided by the expected area of the reference compound based on the past 61 experiments (unadjusted readings). […]

The mark [3] stands for this setting: 18 to 24 hours incubation, tested 30-0.014 μM, lowest concentration inducing response over 20 pg/mL IFN-α, median of # experiments.
[4] abbreviates: lowest tested concentration inducing IFN-α over 20 pg/mL, median where more than one experiment.
Where [5] appears, read: 18 to 24 hours incubation, tested 30-0.014 μM, lowest concentration inducing response over 40 pg/mL TNF-α, median of # experiments.
The mark [6] stands for this setting: lowest tested concentration inducing TNF-α over 40 pg/mL, median where more than one experiment.

The structures appear in SMILES notation. Counter-ions that a name gives are not always drawn. Like-named read-outs stand apart in the source and are kept apart here.

`CC(C)C(=O)NCCCCn1c(CO)nc2c(N)nc3ccccc3c21` (as salt: salt) [Example 146, N-[4-(4-amino-2-hydroxymethyl-1H-imidazo[4,5-c]quinolin-1-yl)butyl]isobutyramide] came in with a melting point of 222 to 224 °C.

For `Cc1nc2c(N)nc3ccccc3c2n1CC(C)(C)NS(C)(=O)=O` [Analog 1, N-[2-(4-Amino-2-methyl-1H-imidazo[4,5-c]quinolin-1-yl)-1,1-dimethylethyl]methanesulfonamide, reference compound], the minimal effective concentration in data set [1] (setting [3]) stood at 0.37 µM; in data set [1] (setting [4]), 0.37 µM; in data set [2] (setting [5]), 3.33 µM; in data set [2] (setting [6]) it was 3.33 µM.

Take `CCc1nc2c(N)nc3ccccc3c2n1CC(C)(C)NS(C)(=O)=O` [Analog 2, N-[2-(4-Amino-2-ethyl-1H-imidazo[4,5-c]quinolin-1-yl)-1,1-dimethylethyl]methanesulfonamide, reference compound]: the minimal effective concentration in data set [1] (setting [3]) came to 0.12 µM; in data set [1] (setting [4]), 0.12 µM; in data set [2] (setting [5]), 1.11 µM; in data set [2] (setting [6]) it was 1.11 µM.

With `CCCc1nc2c(N)nc3ccccc3c2n1CC(C)(C)NS(C)(=O)=O` [Analog 3, N-[2-(4-Amino-2-propyl-1H-imidazo[4,5-c]quinolin-1-yl)-1,1-dimethylethyl]methanesulfonamide, reference compound], the minimal effective concentration was 0.12 µM in data set [1] (setting [3]), 0.12 µM in data set [1] (setting [4]), 0.37 µM in data set [2] (setting [5]) and 0.37 µM in data set [2] (setting [6]).

On to `CCOCc1nc2c(N)nc3ccccc3c2n1CC(C)(C)NS(C)(=O)=O` [Analog 4, N-[2-(4-Amino-2-ethoxymethyl-1H-imidazo[4,5-c]quinolin-1-yl)-1,1-dimethylethyl]methanesulfonamide, reference compound], for which the minimal effective concentration in data set [1] (setting [3]) stood at 0.04 µM; in data set [1] (setting [4]), 0.04 µM; in data set [2] (setting [5]), 0.37 µM; in data set [2] (setting [6]) it was 0.37 µM.

For the molecule `COCCc1nc2c(N)nc3ccccc3c2n1CC(C)(C)NS(C)(=O)=O` [Analog 5, N-{2-[4-Amino-2-(2-methoxyethyl)-1H-imidazo[4,5-c]quinolin-1-yl]-1,1-dimethylethyl}methanesulfonamide, reference compound], the minimal effective concentration in data set [1] (setting [3]) came out at 0.014 µM; in data set [1] (setting [4]), 0.014 µM; in data set [2] (setting [5]), 0.12 µM; in data set [2] (setting [6]), 0.12 µM.

As for `Cc1ccc(S(=O)(=O)NCCCn2c(CCO)nc3c(N)nc4ccccc4c32)cc1` [Example 1, N-{3-[4-Amino-2-(2-hydroxyethyl)-1H-imidazo[4,5-c]quinolin-1-yl]propyl}-4-methylbenzenesulfonamide], the melting point lay within 231 to 232 °C. The minimal effective concentration in data set [1] (setting [4]) turned out to be 0.37 µM. In addition, in data set [2] (setting [6]), the minimal effective concentration was 10 µM.

With `Nc1nc2ccccc2c2c1nc(CCO)n2CCCNC(=O)c1cc2ccccc2cn1` [Example 2, N-{3-[4-Amino-2-(2-hydroxyethyl)-1H-imidazo[4,5-c]quinolin-1-yl]propyl}isoquinoline-3-carboxamide], the melting point fell in the range of 245 to 246 °C. In addition, the minimal effective concentration in data set [1] (setting [4]) amounted to 3.33 µM. In data set [2] (setting [6]), the minimal effective concentration was found to be 3.33 µM.

Take `CS(=O)(=O)NCCCCn1c(CCO)nc2c(N)nc3ccccc3c21` [Example 3, N-{4-[4-Amino-2-(2-hydroxyethyl)-1H-imidazo[4,5-c]quinolin-1-yl]butyl}methanesulfonamide]: the melting point lay in the range of 206 to 208 °C. Also, in data set [1] (setting [4]), the minimal effective concentration came to 0.37 µM. The minimal effective concentration in data set [2] (setting [6]) was > 30 µM. Also, the “Maximal Response (pg/mL) TNF” value in data set [2] (maximal response in dose response curve, background-subtracted, reference-adjusted, median where more than one experiment, * = below background of 40 pg/mL) was “* (TNF below experimental background of 40 pg/mL.)”.

In turn, `CC(C)(N)Cn1c(CO)nc2c(N)nc3ccccc3c21` [Example 4, 1-(2-Amino-2-methylpropyl)-2-hydroxymethyl-1H-imidazo[4,5-c]quinolin-4-amine] yielded a melting point of 248 to 250 °C. For the same molecule, in data set [1] (setting [4]), the minimal effective concentration is 0.37 µM. For the same molecule, in data set [2] (setting [6]), the minimal effective concentration turned out to be 3.33 µM.

`CC(C)(Cn1c(CO)nc2c(N)nc3ccccc3c21)NC(=O)C1CCCCC1` [Example 5, N-[2-(4-Amino-2-hydroxymethyl-1H-imidazo[4,5-c]quinolin-1-yl)-1,1-dimethylethyl]cyclohexanecarboxamide]: the melting point is 248 to 250 °C. Also, the minimal effective concentration in data set [1] (setting [4]) amounted to 0.37 µM. For the same molecule, in data set [2] (setting [6]), the minimal effective concentration turned out to be 10 µM.

As to `Nc1nc2ccccc2c2c1nc(CO)n2CCCCNC(=O)C1CCCC1` [Example 145, N-{4-[4-amino-2-(hydroxymethyl)-1H-imidazo[4,5-c]quinolin-1-yl]butyl}cyclopentanecarboxamide], the melting point fell in the range of 183 to 186 °C.

`CC(C)[C@H](NC(=O)OCc1ccccc1)C(=O)OCc1nc2c(N)nc3ccccc3c2n1CCCCNS(C)(=O)=O` [Example 148, (4-Amino-1-{4-[(methylsulfonyl)amino]butyl}-1H-imidazo[4,5-c]quinolin-2-yl)methyl N-[(benzyloxy)carbonyl]-L-valinate]: the melting point fell in the range of 99 to 100 °C.

As for `CC(C)[C@H](N)C(=O)OCc1nc2c(N)nc3ccccc3c2n1CCCCNS(C)(=O)=O` [Example 149, (4-Amino-1-{4-[(methylsulfonyl)amino]butyl}-1H-imidazo[4,5-c]quinolin-2-yl)methyl L-valinate], the melting point was in the range of 161 to 163 °C.

Take `Nc1nc2ccccc2c2c1nc(CO)n2CC1CCOCC1` [Example 150, [4-Amino-1-(tetrahydro-2H-pyran-4-ylmethyl)-1H-imidazo[4,5-c]quinolin-2-yl]methanol]: the melting point lay in the range of 239 to 241 °C.
